Experimental data taken from EPA's ToxRefDB 2.

Legend:
rat [1] = details: Subchronic dermal toxicity, sprague dawley, Topical, dose end: 90 day, group: systemic, systemic / in life observation / clinical signs / erythema + systemic / in life observation / clinical signs / scabbing + systemic / …
rat [2] = details: Prenatal developmental toxicity study, sprague dawley, Oral, Gavage/Intubation, dose end: 15 GD
rat [3] = details: Prenatal developmental toxicity study, sprague dawley, Oral, Gavage/Intubation, dose end: 15 GD; remark: listed apart in the source
rat [4] = details: Subchronic oral toxicity in rodents, fischer, Feed, dose end: 13 week, group: systemic, systemic / clinical chemistry / thyroxine (t4) / thyroxine (t4), total + systemic / in life observation / body weight / body weight + …
rabbit [5] = details: Prenatal developmental toxicity study; new zealand white; Inhalation; Whole-Body; dose end: 18 GD; group: maternal; systemic / in life observation / body weight / body weight gain
rat [6] = details: Prenatal developmental toxicity study; fischer; Inhalation; Whole-Body; dose end: 15 GD; group: maternal; systemic / in life observation / body weight / body weight + systemic / in life observation / body weight / body weight gain + systemic / in…
rat [7] = details: Subchronic oral toxicity in rodents, fischer, Inhalation, Whole-Body, dose end: 13 week, group: systemic
rabbit [8] = details: Prenatal developmental toxicity study, new zealand white, Oral, Gavage/Intubation, dose end: 19 GD
rat [9] = details: Sub-acute repeat dose toxicity, other, Inhalation, Nose-Only, dose end: 14 day, group: systemic
rat [10] = details: Prenatal developmental toxicity study, other, Inhalation, Nose-Only, dose end: 16 GD
mouse [11] = details: Prenatal developmental toxicity study, cd1, Oral, Gavage/Intubation, dose end: 15 GD
mouse [12] = details: Multigenerational reproductive toxicity study, cd1, Oral, Feed, dose end: 2 generation, group: offspring
rat [13] = details: Subchronic oral toxicity in rodents, sprague dawley, Feed, dose end: 13 week, group: systemic, systemic / clinical chemistry / calcium / calcium + systemic / pathology microscopic / liver / accentuated lobular pattern + systemic / …
rabbit [14] = details: Prenatal developmental toxicity study, new zealand white, Oral, Gavage/Intubation, dose end: 19 GD; remark: listed apart in the source
rat [15] = details: Subchronic inhalation toxicity, sprague dawley, Nose-Only, dose end: 13 week, group: systemic
rat [16] = details: Multigenerational reproductive toxicity study, wistar, Oral, Feed, dose end: 2 generation
rat [17] = details: Carcinogenicity, fischer, Oral, Feed, dose end: 107 week, group: systemic
mouse [18] = details: Combined chronic toxicity/carcinogenicity, cd1, Oral, Feed, dose end: 78 week, group: systemic
dog = details: Chronic toxicity; beagle; Oral; Feed; dose end: 12 month; group: systemic; systemic / clinical chemistry / alkaline phosphatase (alp/alk) / alkaline phosphatase (alp/alk) + systemic / in life observation / body …
rat [19] = details: Combined chronic toxicity/carcinogenicity, sprague dawley, Oral, [Not Specified], dose end: 24 month, group: systemic
mouse [20] = details: Carcinogenicity, b6c3f1, Oral, Feed, dose end: 112 week, group: systemic
[21] = group: developmental, developmental / developmental malformation / kidney / dilatation + developmental / developmental malformation / ureter / distended
[22] = group: maternal, systemic / in life observation / body weight / body weight
[23] = group: developmental, developmental / developmental malformation / bone / full supernumerary + developmental / developmental malformation / bone / incomplete …
[24] = group: maternal, systemic / hematology / erythrocyte (rbc) count differential / erythrocyte (rbc) + systemic / hematology / reticulocyte / reticulocyte + …
[25] = systemic / clinical chemistry / alanine aminotransferase (alt/sgpt) / alanine aminotransferase (alt/sgpt) + systemic / clinical chemistry / …
[26] = systemic / in life observation / clinical signs / urogenital staining + systemic / organ weight / kidney / relative to body weight
[27] = group: developmental, developmental / developmental malformation / bone / fused + developmental / developmental malformation / kidney / hydronephrosis + …
[28] = group: maternal, reproductive / reproductive performance / resorptions / resorptions + systemic / in life observation / body weight / body weight gain + …
[29] = systemic / hematology / leukocyte (wbc) count differential / leukocyte (wbc) + systemic / in life observation / body weight / body weight + …
[30] = group: developmental, developmental / developmental malformation / bone / incomplete ossification + developmental / developmental malformation / bone / short …
[31] = group: maternal, reproductive / reproductive performance / resorptions / resorptions + systemic / in life observation / body weight / body weight + systemic…
[32] = group: developmental, developmental / developmental malformation / bone / [other] + developmental / developmental malformation / bone / absent + developmental / …
[33] = group: developmental, systemic / in life observation / body weight / fetal weight
[34] = group: maternal, reproductive / reproductive performance / postimplantation loss / postimplantation loss + reproductive / reproductive performance / …
[35] = systemic / organ weight / kidney / relative to body weight + systemic / organ weight / liver / relative to body weight + systemic / organ …
[36] = group: maternal, reproductive / reproductive performance / aborted / aborted + systemic / in life observation / body weight / body weight + systemic / in …
[37] = systemic / in life observation / body weight / body weight + systemic / in life observation / clinical signs / [other] + systemic / in life …
[38] = group: offspring, systemic / in life observation / body weight / offspring (pup) weight + systemic / organ weight / spleen / absolute + systemic / organ …
[39] = group: parental, systemic / pathology microscopic / stomach / hyperkeratosis + systemic / pathology microscopic / stomach / hyperplasia + systemic / …
[40] = systemic / in life observation / body weight / body weight
[41] = systemic / organ weight / liver / relative to body weight
[42] = systemic / clinical chemistry / cholesterol / cholesterol + systemic / organ weight / liver / absolute + systemic / organ weight / liver / …
[43] = systemic / in life observation / body weight / body weight + systemic / in life observation / clinical signs / alopecia

## CCN1CN(CC)CN(CC)C1 [1,3,5-Triethylhexahydro-s-triazine]
Rat [1]
  LEL: 10 mg/kg/day
  LOAEL: 10 mg/kg/day
  NEL: < 10 mg/kg/day
  NOAEL: < 10 mg/kg/day
Rat [2]; [21]
  LEL: 150 mg/kg/day
  LOAEL: 150 mg/kg/day
  NEL: 75 mg/kg/day
  NOAEL: 75 mg/kg/day
Rat [2]; [22]
  LEL: 150 mg/kg/day
  LOAEL: 150 mg/kg/day
  NEL: 75 mg/kg/day
  NOAEL: 75 mg/kg/day

## CCCCOCCOC(=O)COc1ccc(Cl)cc1Cl [2,4-D-Butotyl]
Rat [3]; [23]
  LEL: 185 mg/kg/day
  LOAEL: 185 mg/kg/day
  NEL: 75 mg/kg/day
  NOAEL: 75 mg/kg/day
Rat [3]; [24]
  LEL: 185 mg/kg/day
  LOAEL: 185 mg/kg/day
  NEL: 75 mg/kg/day
  NOAEL: 75 mg/kg/day
Rat [4]
  LEL: 145 mg/kg/day
  LOAEL: 145 mg/kg/day
  NEL: 22 mg/kg/day
  NOAEL: 22 mg/kg/day

## CCCCCCOCCO [2-(Hexyloxy)ethanol]
Rabbit [5]
  LEL: 79.2 ppm
  LOAEL: > 79.2 ppm
  NEL: 41.1 ppm
  NOAEL: ≥ 79.2 ppm
Rat [6]
  LEL: 79.2 ppm
  LOAEL: > 79.2 ppm
  NEL: 41.1 ppm
  NOAEL: ≥ 79.2 ppm
Rat [7]; [25]
  LOAEL: > 71 ppm
  NOAEL: ≥ 71 ppm
Rat [7]; [26]
  LEL: 20 ppm
  NEL: < 20 ppm

## COCCOCCOC [Bis(2-methoxyethyl) ether]
Rabbit [8]; [27]
  LOAEL: > 175 mg/kg/day
  NEL: 25 mg/kg/day
  NOAEL: ≥ 175 mg/kg/day
Rabbit [8]; group: developmental, developmental / developmental malformation / limb / [other]
  LEL: 50 mg/kg/day
Rabbit [8]; [28]
  LOAEL: > 175 mg/kg/day
  NEL: 25 mg/kg/day
  NOAEL: ≥ 175 mg/kg/day
Rabbit [8]; group: maternal, systemic / in life observation / body weight / body weight gain
  LEL: 50 mg/kg/day
Rat [9]; [25]
  LOAEL: > 1000 ppm
  NOAEL: ≥ 1000 ppm
Rat [9]; [29]
  LEL: 100 ppm
  NEL: < 100 ppm
Rat [10]; [30]
  LEL: 25 ppm
  LOAEL: > 400 ppm
  NEL: < 25 ppm
  NOAEL: ≥ 400 ppm
Rat [10]; [31]
  LOAEL: > 400 ppm
  NEL: 25 ppm
  NOAEL: ≥ 400 ppm
Rat [10]; group: maternal, systemic / in life observation / food consumption / food consumption + systemic / organ weight / liver / absolute + systemic / organ weight…
  LEL: 100 ppm
Mouse [11]; [32]
  LOAEL: > 500 mg/kg/day
  NEL: 62.5 mg/kg/day
  NOAEL: ≥ 500 mg/kg/day
Mouse [11]; [33]
  LEL: 125 mg/kg/day
Mouse [11]; [34]
  LOAEL: > 500 mg/kg/day
  NEL: 125 mg/kg/day
  NOAEL: ≥ 500 mg/kg/day
Mouse [11]; group: maternal, reproductive / reproductive performance / postimplantation loss / postimplantation loss + systemic / in life observation / body weight / …
  LEL: 250 mg/kg/day

## CCCCCCCCOC(=O)c1ccccc1C(=O)OCCCCCCCC [Dioctyl phthalate]
Mouse [12]; systemic / organ weight / kidney / relative to body weight + systemic / organ weight / liver / relative to body weight
  NEL: 3600 mg/kg/day
Mouse [12]; [35]
  LEL: 7500 mg/kg/day
  LOAEL: > 7500 mg/kg/day
  NOAEL: ≥ 7500 mg/kg/day
Rat [13]
  LEL: 350 mg/kg/day
  LOAEL: > 350 mg/kg/day
  NEL: 36.8 mg/kg/day
  NOAEL: ≥ 350 mg/kg/day

## CCCCCCCCn1sccc1=O [Octhilinone]
Rabbit [14]; [33]
  LEL: 80 mg/kg/day
  LOAEL: 80 mg/kg/day
  NEL: 20 mg/kg/day
  NOAEL: 20 mg/kg/day
Rabbit [14]; [36]
  LEL: 80 mg/kg/day
  LOAEL: 80 mg/kg/day
  NEL: 20 mg/kg/day
  NOAEL: 20 mg/kg/day
Rat [15]; [37]
  LEL: 0.73 ppm
  LOAEL: 0.73 ppm
  NOAEL: 0.0733 ppm
Rat [15]; systemic / in life observation / clinical signs / respiration (rales) + systemic / pathology microscopic / nose / [other]
  NEL: 0.0733 ppm
Rat [16]; [38]
  LOAEL: 111 mg/kg/day
  NEL: 14 mg/kg/day
  NOAEL: 45 mg/kg/day
Rat [16]; group: offspring, systemic / organ weight / spleen / relative to body weight
  LEL: 45 mg/kg/day
Rat [16]; group: parental, systemic / pathology microscopic / stomach / hyperkeratosis + systemic / pathology microscopic / stomach / hyperplasia
  LOAEL: 96 mg/kg/day
Rat [16]; [39]
  LEL: 96 mg/kg/day
  NEL: 43 mg/kg/day
  NOAEL: 43 mg/kg/day

## CCCCOCCOCCOCc1cc2c(cc1CCC)OCO2 [Piperonyl butoxide]
Rat [17]; [40]
  LEL: 250 mg/kg/day
  LOAEL: 500 mg/kg/day
  NEL: < 250 mg/kg/day
Rat [17]; systemic / in life observation / body weight / body weight + systemic / pathology gross / full gross necropsy / lymphoma nos
  NOAEL: 250 mg/kg/day
Mouse [18]; [41]
  LEL: 30 mg/kg/day
  NEL: < 30 mg/kg/day
Mouse [18]; systemic / organ weight / liver / relative to body weight + systemic / pathology microscopic / liver / adenoma
  NOAEL: 30 mg/kg/day
Mouse [18]; systemic / organ weight / liver / relative to body weight + systemic / pathology microscopic / liver / hypertrophy
  LOAEL: 100 mg/kg/day
dog
  LEL: 15.5 mg/kg/day
  LOAEL: 15.5 mg/kg/day
  NEL: 2.9 mg/kg/day
  NOAEL: 2.9 mg/kg/day
Rat [19]; [42]
  LOAEL: 100 mg/kg/day
  NEL: 15 mg/kg/day
  NOAEL: 30 mg/kg/day
Rat [19]; systemic / organ weight / liver / absolute + systemic / organ weight / liver / relative to brain weight + systemic / pathology gross / …
  LEL: 30 mg/kg/day
Mouse [20]; [40]
  LOAEL: 155 mg/kg/day
  NOAEL: < 155 mg/kg/day
Mouse [20]; [43]
  LEL: 155 mg/kg/day
  NEL: < 155 mg/kg/day
